Here are results for 24 compounds from US7989469B2, “Certain chemical entities, compositions, and methods” (Cytokinetics, Incorporated, priority 2008, dated 2011).

The subject of one assay is rabbit skeletal muscle myofibril preparations (approximately 90% fast fibers). Put plainly: Activation of fast skeletal muscle fibers: enzymatic activity of myofibril preparations (PUMA assay system). It is filed as biochemical. Further details: unit not given here. Particulars: detergent treated myofibrils at pCa25%, 500 μM ATP; cells marked †: Mean value. Summed up:
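Detergent-skinned, homogenized rabbit skeletal myofibrils (~90% fast fibers) were run at the calcium level giving 25% of maximal rate (pCa25%). Incubation used 500 μM ATP and 40 μM compound, with a kinetic UV absorbance read. Data were normalized to control wells; hits raised the rate by >40% at 40 μM.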
For the compound `CCC(CC)n1c(O)nc2ncc(Cl)c(-c3cccs3)c21` [6-chloro-1-(ethylpropyl)-7-(2-thienyl)imidazo[4,5-b]pyridin-2-ol], the “AC1.4 Median” value is 0.136†.
Turning to `CCC(CC)n1c(O)nc2ncc(Cl)c(-c3ccsc3)c21` [6-chloro-1-(ethylpropyl)-7-(3-thienyl)imidazo[4,5-b]pyridin-2-ol], the “AC1.4 Median” value is on record as 0.124†.
Same read-out and setting: the value for `CCC(CC)n1c(O)nc2ncc(Cl)c(-c3ccccc3)c21` [6-chloro-1-(ethylpropyl)-7-phenylimidazo[4,5-b]pyridin-2-ol] was 0.110†.
As to `CC(C)n1c(O)nc2ncc(Cl)c(-c3ccc(F)cc3)c21` [6-chloro-7-(4-fluorophenyl)-1-(methylethyl)imidazo[4,5-b]pyridin-2-ol], the “AC1.4 Median” value is listed as 0.096†.
The same measure, in the same setting: the value for `CC[C@H](COC(C)=O)c1nc2nc(O)[nH]c2c(-c2ccc(F)cc2)c1Cl` [(2S)-2-[6-chloro-7-(4-fluorophenyl)-2-hydroxyimidazo[4,5-b]pyridinyl]butyl acetate] was 0.234†.

Staying with this assay, now noted: detergent treated myofibrils at pCa25%, 500 μM ATP; median value (no †).
`CC[C@@H](CO)n1c(O)nc2ncc(Cl)c(-c3ccc(C#N)cc3)c21` [4-[1-((1S)-1-ethyl-2-hydroxyethyl)-6-chloro-2-hydroxyimidazo[4,5-b]pyridin-7-yl]benzenecarbonitrile]: the “AC1.4 Median” value is recorded as 3.249.
On the same count and under the same terms, the value for `OCCn1c(O)nc2ncc(Cl)c(-c3ccccc3)c21` [6-chloro-1-(2-hydroxyethyl)-7-phenylimidazo[4,5-b]pyridin-2-ol] was 34.551.
Same read-out and setting: the value for `CCC(C)n1c(O)nc2ncc(Cl)c(-n3cccn3)c21` (stereo not drawn) [6-chloro-1-(methylpropyl)-7-pyrazolylimidazo[4,5-b]pyridin-2-ol] was 1.3927.
In the case of `COCC(COC)n1c(O)nc2ncc(Cl)c(-n3cccn3)c21` [6-chloro-1-[2-methoxy-1-(methoxymethyl)ethyl]-7-pyrazolylimidazo[4,5-b]pyridin-2-ol], the “AC1.4 Median” value is recorded as 27.9068.
Still for that read-out and setting: the figure for `Oc1nc2ncc(Cl)c(-c3ccc(F)cc3)c2n1C1CCCC1` [6-chloro-1-cyclopentyl-7-(4-fluorophenyl)imidazo[4,5-b]pyridin-2-ol] is 1.677; for `CC(C)(CO)n1c(O)nc2ncc(Cl)c(-c3ccc(F)cc3)c21` [6-chloro-7-(4-fluorophenyl)-1-(2-hydroxy-tert-butyl)imidazo[4,5-b]pyridin-2-ol] it is 0.760; for `OCCCn1c(O)nc2ncc(Cl)c(-c3ccc(F)cc3)c21` [6-chloro-7-(4-fluorophenyl)-1-(3-hydroxypropyl)imidazo[4,5-b]pyridin-2-ol] it is 7.015.
On the same count and under the same terms, the figure for `CC(C)CC(CO)n1c(O)nc2ncc(Cl)c(-c3ccc(F)cc3)c21` (stereo not drawn) [6-chloro-7-(4-fluorophenyl)-1-[2-hydroxy-1-(2-methylpropyl)ethyl]imidazo[4,5-b]pyridin-2-ol] is 0.210.
The same measure, in the same setting: the figure for `Cn1c(O)nc2ncc(Cl)c(-c3ccc(F)cc3)c21` [6-chloro-7-(4-fluorophenyl)-1-methylimidazo[4,5-b]pyridin-2-ol] is 12.620; for `C=CCn1c(O)nc2ncc(Cl)c(-c3ccc(F)cc3)c21` [6-chloro-7-(4-fluorophenyl)-1-prop-2-enylimidazo[4,5-b]pyridin-2-ol] it is 1.947.
For `CC[C@H](COP(=O)(O)O)c1nc2nc(O)[nH]c2c(-c2ccc(F)cc2)c1Cl` [(2S)-2-[6-chloro-7-(4-fluorophenyl)-2-hydroxyimidazo[4,5-b]pyridinyl]butyl dihydrogen phosphate], the “AC1.4 Median” value is 31.644.
As to `CC[C@H](COC(=O)[C@@H](N)C(C)C)c1nc2nc(O)[nH]c2c(-c2ccc(F)c(F)c2)c1Cl` [(2S)-2-[7-(3,4-difluorophenyl)-6-chloro-2-hydroxyimidazo[4,5-b]pyridinyl]butyl (2S)-2-amino-3-methylbutanoate], the “AC1.4 Median” value came to 6.640.
For `CC[C@H](CNC(C)=O)c1nc2nc(O)[nH]c2c(-c2ccc(F)cc2)c1Cl` [N-{(2R)-2-[6-chloro-7-(4-fluorophenyl)-2-hydroxyimidazo[4,5-b]pyridinyl]butyl}acetamide], the “AC1.4 Median” value turned out to be 15.6039.
On the same count and under the same terms, the value for `CC[C@@H](CNC(C)=O)c1nc2nc(O)[nH]c2c(-c2ccc(F)cc2)c1Cl` [N-{(2S)-2-[6-chloro-7-(4-fluorophenyl)-2-hydroxyimidazo[4,5-b]pyridinyl]butyl}acetamide] was 8.4925; that for “(tert-butoxy)-N-{4-[6-chloro-1-(ethylpropyl)-2-hydroxyimidazo[4,5-b]pyridin-7-yl]phenyl}-N-methylcarboxamide” was 42.343.
On to “N-{4-[6-chloro-1-(ethylpropyl)-2-hydroxyimidazo[4,5-b]pyridin-7-yl]phenyl}acetamide”, for which the “AC1.4 Median” value came to 28.930.
Same read-out and setting: the figure for “methyl 3-[6-chloro-1-(ethylpropyl)-2-hydroxyimidazo[4,5-b]pyridin-7-yl]benzoate” is 9.682.
With “{3-[6-chloro-1-(ethylpropyl)-2-hydroxyimidazo[4,5-b]pyridin-7-yl]phenyl}-N,N-dimethylcarboxamide”, the “AC1.4 Median” value is 21.245.
Same read-out and setting: the figure for “{4-[6-chloro-1-(ethylpropyl)-2-hydroxyimidazo[4,5-b]pyridin-7-yl]phenyl}(methylsulfonyl)amine” is 26.368.
